The values that follow come from patent US20110230472A1, “RING-FUSED AZOLE DERIVATIVE HAVING PI3K-INHIBITING ACTIVITY” (Shionogi & Co., Ltd., priority 2008, published 2011).

Some results are limits rather than exact numbers.

In one assay the target is PI-3 kinase γ (Homo sapiens, UniProt P48736). As to the kind of experiment: PI3Kγ inhibitory activity, PI3-kinase HTRF assay (inhibition ratio). The format is biochemical. As to conditions: 0.5 h; compound at 10 μmol/L. An outline of the steps: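 Single-concentration inhibition ratio (50 or 10 μmol/L compound) versus no-compound (100%) and no-enzyme (0%) wells. Reaction: PI-3 kinase γ, PIP2, ATP, MgCl2/DTT, 30 min at RT after 10 min preincubation. Read-out: HTRF 665/620 nm after 18 h detection.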
Chain of PI-3 kinase γ (P48736 whole entry): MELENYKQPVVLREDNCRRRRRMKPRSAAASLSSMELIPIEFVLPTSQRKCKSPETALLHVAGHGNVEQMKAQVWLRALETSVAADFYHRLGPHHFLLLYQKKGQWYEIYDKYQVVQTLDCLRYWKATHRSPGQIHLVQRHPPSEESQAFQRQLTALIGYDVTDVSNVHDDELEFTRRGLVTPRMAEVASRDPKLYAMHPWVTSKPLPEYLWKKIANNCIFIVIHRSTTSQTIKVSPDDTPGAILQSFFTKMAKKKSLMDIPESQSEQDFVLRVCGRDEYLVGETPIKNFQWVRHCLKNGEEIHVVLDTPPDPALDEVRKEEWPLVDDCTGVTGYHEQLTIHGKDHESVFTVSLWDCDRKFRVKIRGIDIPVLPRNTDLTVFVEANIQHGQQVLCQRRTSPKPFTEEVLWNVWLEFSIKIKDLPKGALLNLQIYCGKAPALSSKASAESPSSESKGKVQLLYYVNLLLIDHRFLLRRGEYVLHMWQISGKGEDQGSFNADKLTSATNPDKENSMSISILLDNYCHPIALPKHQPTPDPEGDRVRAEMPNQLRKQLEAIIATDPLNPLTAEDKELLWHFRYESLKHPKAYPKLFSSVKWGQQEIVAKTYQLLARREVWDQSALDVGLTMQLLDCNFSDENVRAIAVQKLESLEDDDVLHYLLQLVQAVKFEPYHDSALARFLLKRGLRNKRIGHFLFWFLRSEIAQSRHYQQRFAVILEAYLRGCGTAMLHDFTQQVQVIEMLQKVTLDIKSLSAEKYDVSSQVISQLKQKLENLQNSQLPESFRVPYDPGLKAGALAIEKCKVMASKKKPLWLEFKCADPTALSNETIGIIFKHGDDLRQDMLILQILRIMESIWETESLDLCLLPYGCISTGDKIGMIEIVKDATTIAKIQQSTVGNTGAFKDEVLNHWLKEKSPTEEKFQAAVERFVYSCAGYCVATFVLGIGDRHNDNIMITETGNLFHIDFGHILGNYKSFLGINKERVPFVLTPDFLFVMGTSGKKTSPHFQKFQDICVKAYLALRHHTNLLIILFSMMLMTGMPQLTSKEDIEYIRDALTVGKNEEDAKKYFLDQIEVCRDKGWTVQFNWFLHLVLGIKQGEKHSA
On the technique in general: Time-resolved FRET reads energy transfer from a long-lived donor to a nearby acceptor.
A word on the inhibition: it is the percentage by which the read-out fell short of the control. Regarding `COc1cc(N2CCc3nc(NC(=O)Nc4ccc(C(C)(C)C)cc4)sc3C2)nc(OC)n1` [Compound I-289], the inhibition at 10 µM is 90%.

Consider `O=C(Nc1cc2n(n1)CCN2c1ccc2cnccc2c1)OCc1ccccc1` [Compound I-291], for which the inhibition at 10 µM is at least 95%.

With `COc1cccc(N2CCn3nc(NC(=O)CCNC(=O)OC(C)(C)C)cc32)c1` [Compound I-293], the inhibition at 10 µM stood at 86%.

As to `COc1cc(N2CCc3nc(NC(=O)NC4CCCCC4)sc3C2)nc(OC)n1` [Compound I-294], the inhibition at 10 µM came out at 84%.

For the compound `COc1cccc(NC(=O)Nc2nc3c(s2)CN(c2cc(OC)nc(OC)n2)CC3)c1` [Compound I-295], the inhibition at 10 µM came out at 93%.

Take `COc1cc(N2CCc3nc(NC(=O)Nc4cccs4)sc3C2)nc(OC)n1` [Compound I-296]: the inhibition at 10 µM turned out to be 88%.

Turning to `COc1cc(N2CCc3nc(NC(=O)Nc4ccsc4)sc3C2)nc(OC)n1` [Compound I-297], the inhibition at 10 µM turned out to be 91%.

In the case of `COc1cc(N2CCc3nc(NC(=O)Nc4ccccn4)sc3C2)nc(OC)n1` [Compound I-302], the inhibition at 10 µM worked out at 85%.

For the compound `COc1cc(N2CCc3nc(NC(=O)N4CCC(=O)N5CCOCC5C4=O)sc3C2)nc(OC)n1` (centres unmarked) [Compound I-304], the inhibition at 10 µM came out at 89%.

In the case of `CC(=O)Nc1cc2n(n1)CCN2c1ccc2c(c1)CCCN2C(=O)OC(C)(C)C` [Compound I-306], the inhibition at 10 µM is at least 95%.

Regarding `CCOC(=O)CCCCC(=O)Nc1cc2n(n1)CCN2c1cccc(OC)c1` [Compound I-307], the inhibition at 10 µM came to 86%.

Regarding `COc1cc(N2CCc3nc(NC(=O)NCCC(=O)N4CCC[C@H]4C(=O)NC(C)(C)C)sc3C2)nc(OC)n1` [Compound I-311], the inhibition at 10 µM was at least 95%.

Take `COc1cc(N2CCc3nc(NC(=O)NCCC(=O)N4CCC[C@H]4C(=O)N4CCCC4)sc3C2)nc(OC)n1` [Compound I-312]: the inhibition at 10 µM was at least 95%.

Regarding `COc1cc(N2CCc3nc(NC(=O)NCCC(=O)N4CCC[C@H]4C(=O)N(C)C(C)C)sc3C2)nc(OC)n1` [Compound I-313], the inhibition at 10 µM amounted to 89%.

As for `CN1CCc2cc(N3CCn4nc(NC(=O)OCc5ccccc5)cc43)ccc2C1=O` [Compound I-314], the inhibition at 10 µM worked out at 88%.

Turning to `COc1cccc(N2CCn3nc(NC(=O)CCCCC(=O)O)cc32)c1` [Compound I-315], the inhibition at 10 µM was at least 95%.

As to `Nc1cc2n(n1)CCN2c1ccc2cnccc2c1` [Compound I-316], the inhibition at 10 µM is 75%.

`COc1cccc(N2CCn3nc(NC(=O)c4ccc[nH]4)cc32)c1` [Compound I-320]: the inhibition at 10 µM was at least 95%.

Turning to `COc1cc(N2CCc3nc(NC(=O)Nc4cccc(C(=O)OC(C)(C)C)c4)sc3C2)nc(OC)n1` [Compound I-321], the inhibition at 10 µM amounted to 95%.

Consider `CN1CCc2cc(N3CCn4nc(NC(=O)c5ccccc5)cc43)ccc2C1=O` [Compound I-324], for which the inhibition at 10 µM is 93%.

`COc1cc(N2CCc3nc(NC(=O)NCCC(=O)N4CCOCC4(C)C)sc3C2)nc(OC)n1` [Compound I-328]: the inhibition at 10 µM came to 87%.

For the compound `COc1cc(N2CCc3nc(NC(=O)NCc4cc(Br)no4)sc3C2)nc(OC)n1` [Compound I-329], the inhibition at 10 µM turned out to be 89%.

As for `CNC(=O)Nc1nc2c(s1)CN(c1cc(Cl)nc(OC)n1)CC2` [Compound I-333], the inhibition at 10 µM was determined as 88%.

For `COc1nc(Cl)cc(N2CCc3nc(NC(C)=O)sc3C2)n1` [Compound I-334], the inhibition at 10 µM came out at 88%.

Consider `CC(=O)Nc1cc2n(n1)CCN2c1ccc2c(c1)CCC(=O)N2` [Compound I-335], for which the inhibition at 10 µM was at least 95%.

On to `CNC(=O)Nc1cc2n(n1)CCN2c1ccc2c(c1)CCN(C)C2=O` [Compound I-336], for which the inhibition at 10 µM amounted to 89%.

As to `COc1cc(N2CCc3nc(NC(=O)Cc4ccccc4C(=O)NC(C)(C)C)sc3C2)nc(OC)n1` [Compound I-337], the inhibition at 10 µM worked out at 82%.

For the compound `CN1CCc2cc(N3CCn4nc(NC(=O)Cc5ccc(F)cc5)cc43)ccc2C1=O` [Compound I-342], the inhibition at 10 µM is 92%.

Turning to `CN1CCc2cc(N3CCn4nc(NC(=O)c5ccc(S(C)(=O)=O)s5)cc43)ccc2C1=O` [Compound I-344], the inhibition at 10 µM is 80%.

For `CN1CCc2cc(N3CCn4nc(NC(=O)c5cc6ccccc6[nH]5)cc43)ccc2C1=O` [Compound I-345], the inhibition at 10 µM worked out at 80%.

As for `CN1CCc2cc(N3CCn4nc(NC(=O)c5ccc6[nH]cnc6c5)cc43)ccc2C1=O` [Compound I-349], the inhibition at 10 µM is at least 95%.

Regarding `CN1CCc2cc(N3CCn4nc(NC(=O)c5ccncc5)cc43)ccc2C1=O` [Compound I-360], the inhibition at 10 µM was at least 95%.

Turning to `Cc1csc(C(=O)Nc2cc3n(n2)CCN3c2ccc3c(c2)CCN(C)C3=O)c1` [Compound I-361], the inhibition at 10 µM came out at 80%.

As to `CNC(=O)Nc1nc2c(s1)CN(c1cc(N(C)C)nc(OC)n1)CC2` [Compound I-362], the inhibition at 10 µM was at least 95%.

For the compound `COC(=O)Nc1cc[nH]c1C(=O)Nc1cc2n(n1)CCN2c1cccc(OC)c1` [Compound I-364], the inhibition at 10 µM is at least 95%.

With `CN1CCc2cc(N3CCn4nc(NC(=O)Nc5cccs5)cc43)ccc2C1=O` [Compound I-367], the inhibition at 10 µM amounted to 86%.

With `CN1CCc2cc(N3CCn4nc(NC(=O)Nc5ccsc5)cc43)ccc2C1=O` [Compound I-368], the inhibition at 10 µM amounted to 95%.

For `CN1CCc2cc(N3CCn4nc(NC(=O)NCc5ccccc5)cc43)ccc2C1=O` [Compound I-370], the inhibition at 10 µM is 84%.

In the case of `CN1CCc2cc(N3CCn4nc(NC(=O)c5ccc(N6CCCC6)s5)cc43)ccc2C1=O` [Compound I-371], the inhibition at 10 µM is at least 95%.

As for `CN1CCc2cc(N3CCn4nc(NC(=O)c5cnc(NC(=O)OC(C)(C)C)o5)cc43)ccc2C1=O` [Compound I-376], the inhibition at 10 µM is at least 95%.

In the case of `CN1CCc2cc(N3CCn4nc(NC(=O)c5cnc(Br)s5)cc43)ccc2C1=O` [Compound I-377], the inhibition at 10 µM was at least 95%.

`CN1CCc2cc(N3CCn4nc(NC(=O)c5cnc(N)o5)cc43)ccc2C1=O` [Compound I-381]: the inhibition at 10 µM was at least 95%.

Regarding `CN1CCc2cc(N3CCn4nc(NC(=O)c5cc6cccnc6[nH]5)cc43)ccc2C1=O` [Compound I-385], the inhibition at 10 µM was determined as 91%.

`CN1CCc2cc(N3CCn4nc(NC(=O)c5ccc(N)nc5)cc43)ccc2C1=O` [Compound I-386]: the inhibition at 10 µM is at least 95%.

Consider `CN1CCc2cc(N3CCn4nc(NC(=O)c5ccc(C(=O)O)s5)cc43)ccc2C1=O` [Compound I-391], for which the inhibition at 10 µM is at least 95%.

Consider `COc1cc(N2CCc3nc(NC(=O)N/C(C)=C\C(=O)NC(C)(C)C)sc3C2)nc(OC)n1` [Compound I-392], for which the inhibition at 10 µM is at least 95%.

As for `CN1CCc2cc(N3CCn4nc(NC(=O)c5csc(Br)c5)cc43)ccc2C1=O` [Compound I-396], the inhibition at 10 µM was found to be 76%.

On to `COC(=O)c1csc(C(=O)Nc2cc3n(n2)CCN3c2ccc3c(c2)CCN(C)C3=O)c1` [Compound I-399], for which the inhibition at 10 µM is at least 95%.

Take `CN1CCc2cc(N3CCn4nc(NC(=O)c5cc(C(=O)O)cs5)cc43)ccc2C1=O` [Compound I-401]: the inhibition at 10 µM is 93%.

On to `CN1CCc2cc(N3CCn4nc(NC(=O)c5ccc(C(N)=O)s5)cc43)ccc2C1=O` [Compound I-404], for which the inhibition at 10 µM was determined as 78%.

Take `CNC(=O)c1ccc(C(=O)Nc2cc3n(n2)CCN3c2ccc3c(c2)CCN(C)C3=O)s1` [Compound I-406]: the inhibition at 10 µM was at least 95%.

Take `COCCNC(=O)c1ccc(C(=O)Nc2cc3n(n2)CCN3c2ccc3c(c2)CCN(C)C3=O)s1` [Compound I-410]: the inhibition at 10 µM is at least 95%.

In the case of `CN1CCc2cc(N3CCn4nc(NC(=O)c5ccc(C(=O)NCC(=O)OC(C)(C)C)s5)cc43)ccc2C1=O` [Compound I-411], the inhibition at 10 µM was at least 95%.

With `CN1CCc2cc(N3CCn4nc(NC(=O)c5csc(C(=O)OC(C)(C)C)c5)cc43)ccc2C1=O` [Compound I-413], the inhibition at 10 µM was found to be 87%.

Consider `CN1CCc2cc(N3CCn4nc(NC(=O)c5csc(C(=O)O)c5)cc43)ccc2C1=O` [Compound I-418], for which the inhibition at 10 µM was determined as 93%.

Take `CC(C)NC(=O)c1cc(C(=O)Nc2cc3n(n2)CCN3c2ccc3c(c2)CCN(C)C3=O)cs1` [Compound I-419]: the inhibition at 10 µM amounted to 83%.

The assay is the same for the next values; noted with them: 0.5 h; compound at 50 μmol/L.
As for `COc1cc(N2CCc3nc(NC(=O)NC4CCC(C(C)(C)C)CC4)sc3C2)nc(OC)n1` (centres unmarked) [Compound I-290], the inhibition at 50 µM is 88%.

As to `CC(=O)Nc1cc2n(n1)CCN2c1ccc2c(c1)CCN(C(=O)OC(C)(C)C)C2` [Compound I-301], the inhibition at 50 µM was at least 95%.

Take `CC(=O)Nc1cc2n(n1)CCN2c1ccc2c(c1)CCNC2` [Compound I-305]: the inhibition at 50 µM came to 84%.

Consider `CNC(=O)Nc1nc2c(s1)CN(c1cc(OCC3CC3)nc(Cl)n1)CC2` [Compound I-325], for which the inhibition at 50 µM worked out at 81%.

Take `CN1CCc2cc(N3CCn4nc(NC(=O)C5CCN(C(=O)OC(C)(C)C)C5)cc43)ccc2C1=O` (centres unmarked) [Compound I-350]: the inhibition at 50 µM was at least 95%.

Consider `CN1CCc2cc(N3CCn4nc(NC(=O)CC5CCN(C(=O)OC(C)(C)C)C5)cc43)ccc2C1=O` (centres unmarked) [Compound I-351], for which the inhibition at 50 µM was at least 95%.

In the case of `CN1CCc2cc(N3CCn4nc(NC(=O)C(O)c5ccccc5)cc43)ccc2C1=O` (centres unmarked) [Compound I-352], the inhibition at 50 µM turned out to be 81%.

Regarding `CN1CCc2cc(N3CCn4nc(NC(=O)C5CCNC5)cc43)ccc2C1=O` (centres unmarked) [Compound I-355], the inhibition at 50 µM stood at 92%.

Regarding `CN1CCc2cc(N3CCn4nc(NC(=O)c5ccc(Br)s5)cc43)ccc2C1=O` [Compound I-365], the inhibition at 50 µM came out at 81%.

Consider `CN1CCc2cc(N3CCn4nc(NC(=O)NC5CCCC5)cc43)ccc2C1=O` [Compound I-369], for which the inhibition at 50 µM was at least 95%.

As to `CN1CCc2cc(N3CCn4nc(NC(=O)C5CCCO5)cc43)ccc2C1=O` (centres unmarked) [Compound I-372], the inhibition at 50 µM is 84%.

Turning to `CN1CCc2cc(N3CCn4nc(NC(=O)c5csc6ccccc56)cc43)ccc2C1=O` [Compound I-373], the inhibition at 50 µM worked out at 82%.
